Assay results from ChEMBL document CHEMBL1201862, “PubChem BioAssay data set” (2004).
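A five-concentration, 48-hour dose response in 96-well plates underlies each endpoint, interpolated linearly between surrounding concentrations. The concentration for 50% growth inhibition is given as GI50.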 Calls of active or inactive are those of the source. Cut-off read from the data, not from the text of the source: active = GI50 up to about 1.1 µM and inactive = higher.

Legend:
Assay in all cases: NCI-60 cell line screen, 48 h
SNB-75 = tested on: SNB-75
SK-MEL-5 = tested on: SK-MEL-5
OVCAR-5 = tested on: OVCAR-5
OVCAR-4 = tested on: OVCAR-4
A498 = tested on: A498
OVCAR-3 = tested on: OVCAR-3
ACHN = tested on: ACHN
U-251 = tested on: U-251
M14 = tested on: M14
LOX IMVI = tested on: LOX IMVI
NCI-H522 = tested on: NCI-H522
UACC-62 = tested on: UACC-62
NCI/ADR-RES = tested on: NCI/ADR-RES
K562 = tested on: K562
HOP-92 = tested on: HOP-92
HCC 2998 = tested on: HCC 2998
UO-31 = tested on: UO-31
OVCAR-8 = tested on: OVCAR-8
TK-10 = tested on: TK-10

Measured: GI50

CC1=C(O)C(O)=C(C2=C(O)C(O)=C(C)C(=O)C2=O)C(=O)C1=O
inactive: SNB-75 76.2 µM | SK-MEL-5 27.2 µM | OVCAR-5 41.6 µM | OVCAR-4 24.6 µM | A498 31 µM | OVCAR-3 30.8 µM | ACHN 28.1 µM | U-251 40.9 µM | M14 38.5 µM | LOX IMVI 30.6 µM | NCI-H522 29.3 µM | UACC-62 18.6 µM | NCI/ADR-RES 36 µM | K562 45.7 µM | HOP-92 29.9 µM | HCC 2998 39.1 µM | UO-31 39.1 µM | OVCAR-8 47.4 µM

CCCCNc1c(CN)cnc2cc(Cl)ccc12
inactive: SNB-75 19.8 µM | SK-MEL-5 15.1 µM | OVCAR-5 16.6 µM | OVCAR-4 16.6 µM | A498 15.4 µM | OVCAR-3 15 µM | ACHN 22.6 µM | U-251 16.4 µM | M14 20 µM | LOX IMVI 15.4 µM | NCI-H522 18.8 µM | UACC-62 15.6 µM | NCI/ADR-RES 16.2 µM | TK-10 15 µM | K562 13.9 µM | HOP-92 15.9 µM | HCC 2998 2.73 µM | OVCAR-8 18.2 µM

O=c1[nH]c(=O)n(COCCO)c2ccsc12
inactive: SNB-75 > 100 µM | SK-MEL-5 > 100 µM | OVCAR-5 > 100 µM | OVCAR-4 > 100 µM | A498 > 100 µM | OVCAR-3 > 100 µM | ACHN > 100 µM | U-251 > 100 µM | M14 > 100 µM | LOX IMVI > 100 µM | NCI-H522 > 100 µM | NCI/ADR-RES > 100 µM | TK-10 > 100 µM | K562 > 100 µM | HOP-92 > 100 µM | HCC 2998 > 100 µM | UO-31 > 100 µM | OVCAR-8 > 100 µM

COC(=O)c1c(C)cccc1C1CN=NC12Cc1cc(C)cc(C)c1C2=O (stereo unspecified)
inactive: SNB-75 27 µM | SK-MEL-5 19.2 µM | OVCAR-5 48 µM | OVCAR-4 29.2 µM | A498 24.9 µM | OVCAR-3 28.9 µM | ACHN 41.5 µM | U-251 44.7 µM | M14 46.1 µM | LOX IMVI 17 µM | NCI-H522 9.46 µM | UACC-62 70.6 µM | NCI/ADR-RES 25.2 µM | TK-10 32.4 µM | K562 30.2 µM | HOP-92 20.4 µM | HCC 2998 22.9 µM | UO-31 28.4 µM | OVCAR-8 54.1 µM

CCc1c(CNC2=NCCN2)c(CC)c(CNC2=NCCN2)c(CC)c1CNC1=NCCN1
inactive: SNB-75 > 100 µM | SK-MEL-5 > 100 µM | OVCAR-5 > 100 µM | OVCAR-4 > 100 µM | A498 > 100 µM | OVCAR-3 > 100 µM | ACHN > 100 µM | U-251 > 100 µM | M14 > 100 µM | NCI-H522 > 100 µM | UACC-62 > 100 µM | NCI/ADR-RES > 100 µM | TK-10 > 100 µM | K562 > 100 µM | HOP-92 > 100 µM | HCC 2998 > 100 µM | UO-31 > 100 µM | OVCAR-8 > 100 µM
